Source: PMC7206119, “RIP1 inhibition blocks inflammatory diseases but not tumor growth or metastases” (Cell Death and Differentiation, 2019)

Assays:
Assay in all cases: biochemical
Design in all cases: DiscoverX kinase panel, active-site competition binding (KINOMEscan type), percent of control at one concentration
Conditions in all cases: competition binding, percent of control
ACVR2A = ACVR2A (Homo sapiens, UniProt P27037)
Source text: (§1) To investigate the potential therapeutic benefit of inhibiting RIP1, we developed GNE684 or (S)-N-((S)-7-methoxy-1-methyl-2-oxo-2,3,4,5-tetrahydro-1H-pyrido[3,4-b]azepin-3-yl)-5-phenyl-6,7-dihydro-5H-pyrrolo[1,2-b][1,2,4]triazole-2-carboxamide with cross-species potency against RIP1, exquisite kinase selectivity, and favorable pharmacological properties (Fig. 1a–h, S1, Tables S1 and S2, SI file 1). […] (Fig. 1b, S1, and Table S1). […] GNE684 inhibited human RIP1 potently in vitro, and mouse and rat RIP1 with slightly less potency (Fig. 1d). Accordingly, it inhibited TNF-induced necroptosis in human HT-29, mouse L929, or rat H9c2 cells (Fig. 1e). The cellular potency of GNE684 was confirmed in a human whole blood assay using TBZ (TNF, IAP antagonist BV6, and pan-caspase inhibitor zVAD) or LZ (LPS plus zVAD) to trigger necroptosis and the release of IL-1α and IL-1β (Fig. 1f).

AKT1 = AKT1 (Homo sapiens, UniProt P31749)
Source text: as §1

ALK(L1196M) = ALK(L1196M) (Homo sapiens, UniProt Q9UM73, L1196M)
Source text: as §1

BMPR1B = BMPR1B (Homo sapiens, UniProt O00238)
Source text: as §1

BUB1 = BUB1 (Homo sapiens, UniProt O43683)
Source text: as §1

CDKL1 = CDKL1 (Homo sapiens, UniProt Q00532)
Source text: as §1

CSNK1G2 = CSNK1G2 (Homo sapiens, UniProt P78368)
Source text: as §1

DRAK2 = target: T1, DRAK2 (Homo sapiens, UniProt O94768)
T1 construct: gene STK17B
Source text: as §1

FLT1 = FLT1 (Homo sapiens, UniProt P17948)
Source text: as §1

FLT3(ITD,D835V) = FLT3(ITD,D835V) (Homo sapiens, UniProt P36888, D835V/ITD)
Source text: as §1

GSK3B = GSK3B (Homo sapiens, UniProt P49841)
Source text: as §1

IRAK4 = IRAK4 (Homo sapiens, UniProt Q9NWZ3)
Source text: as §1

KIT(V559D,T670I) = KIT(V559D,T670I) (Homo sapiens, UniProt P10721, T670I/V559D)
Source text: as §1

MAP3K1 = MAP3K1 (Homo sapiens, UniProt Q13233)
Source text: as §1

MYLK = MYLK (Homo sapiens, UniProt Q15746)
Source text: as §1

NLK = NLK (Homo sapiens, UniProt Q9UBE8)
Source text: as §1

PAK4 = PAK4 (Homo sapiens, UniProt O96013)
Source text: as §1

PIK3CA(C420R) = PIK3CA(C420R) (Homo sapiens, UniProt P42336, C420R)
Source text: as §1

[1] = target: T2, RPS6KA5(Kin.Dom.2-C-terminal) (Homo sapiens, UniProt O75582)
T2 construct: Kin.Dom.2-C-terminal
Source text: as §1

STK36 = STK36 (Homo sapiens, UniProt Q9NRP7)
Source text: as §1

TLK1 = TLK1 (Homo sapiens, UniProt Q9UKI8)
Source text: as §1

BMPR1B, sequence (O00238 whole entry): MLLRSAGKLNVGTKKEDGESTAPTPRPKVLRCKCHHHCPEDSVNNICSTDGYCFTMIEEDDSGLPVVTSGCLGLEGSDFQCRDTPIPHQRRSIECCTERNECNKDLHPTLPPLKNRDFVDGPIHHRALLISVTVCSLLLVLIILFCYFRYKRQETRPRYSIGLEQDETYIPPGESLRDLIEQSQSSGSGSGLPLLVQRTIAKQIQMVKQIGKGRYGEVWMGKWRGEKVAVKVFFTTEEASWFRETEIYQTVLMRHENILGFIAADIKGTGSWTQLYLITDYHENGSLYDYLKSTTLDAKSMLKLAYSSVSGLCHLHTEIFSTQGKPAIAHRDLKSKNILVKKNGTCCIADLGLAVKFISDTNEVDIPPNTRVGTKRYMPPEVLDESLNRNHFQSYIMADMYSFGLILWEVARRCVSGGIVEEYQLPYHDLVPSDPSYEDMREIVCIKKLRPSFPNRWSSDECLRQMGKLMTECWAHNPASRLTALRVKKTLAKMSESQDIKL
T2 sequence (O75582 whole entry): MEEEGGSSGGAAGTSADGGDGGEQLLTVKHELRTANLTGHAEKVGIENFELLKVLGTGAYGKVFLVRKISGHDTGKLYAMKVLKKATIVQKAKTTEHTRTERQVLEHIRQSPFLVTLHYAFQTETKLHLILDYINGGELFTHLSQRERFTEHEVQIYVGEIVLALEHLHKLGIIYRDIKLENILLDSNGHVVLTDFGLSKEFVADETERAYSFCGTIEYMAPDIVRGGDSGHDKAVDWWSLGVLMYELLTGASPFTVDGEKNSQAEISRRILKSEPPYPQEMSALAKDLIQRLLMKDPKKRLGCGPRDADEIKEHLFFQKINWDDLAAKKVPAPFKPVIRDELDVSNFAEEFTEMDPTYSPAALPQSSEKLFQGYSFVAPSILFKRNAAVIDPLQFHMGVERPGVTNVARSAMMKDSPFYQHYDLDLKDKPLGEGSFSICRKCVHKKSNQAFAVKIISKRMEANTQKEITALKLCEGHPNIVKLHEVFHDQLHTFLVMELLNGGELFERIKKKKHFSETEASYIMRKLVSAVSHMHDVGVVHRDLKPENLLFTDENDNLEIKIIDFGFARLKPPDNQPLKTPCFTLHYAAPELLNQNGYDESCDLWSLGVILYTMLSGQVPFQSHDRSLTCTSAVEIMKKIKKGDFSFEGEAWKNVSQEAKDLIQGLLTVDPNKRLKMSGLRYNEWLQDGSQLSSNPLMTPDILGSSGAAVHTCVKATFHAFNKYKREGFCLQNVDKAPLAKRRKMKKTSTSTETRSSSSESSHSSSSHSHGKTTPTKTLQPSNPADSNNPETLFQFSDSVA
NLK, sequence (Q9UBE8 whole entry): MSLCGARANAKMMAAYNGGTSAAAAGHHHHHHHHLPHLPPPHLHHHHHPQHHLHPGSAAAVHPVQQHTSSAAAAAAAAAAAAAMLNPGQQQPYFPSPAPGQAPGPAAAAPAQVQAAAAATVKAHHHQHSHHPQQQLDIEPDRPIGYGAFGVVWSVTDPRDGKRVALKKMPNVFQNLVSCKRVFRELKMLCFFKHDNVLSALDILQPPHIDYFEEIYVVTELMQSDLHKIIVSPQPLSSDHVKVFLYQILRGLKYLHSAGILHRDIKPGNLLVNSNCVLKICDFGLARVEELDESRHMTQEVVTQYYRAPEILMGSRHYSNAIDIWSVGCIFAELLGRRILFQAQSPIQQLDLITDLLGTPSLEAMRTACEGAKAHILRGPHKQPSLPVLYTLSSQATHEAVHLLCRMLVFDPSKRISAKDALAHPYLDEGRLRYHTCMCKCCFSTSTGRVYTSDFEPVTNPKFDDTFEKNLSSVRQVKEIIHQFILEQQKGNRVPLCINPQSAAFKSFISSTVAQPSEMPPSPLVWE
AKT1, sequence (P31749 whole entry): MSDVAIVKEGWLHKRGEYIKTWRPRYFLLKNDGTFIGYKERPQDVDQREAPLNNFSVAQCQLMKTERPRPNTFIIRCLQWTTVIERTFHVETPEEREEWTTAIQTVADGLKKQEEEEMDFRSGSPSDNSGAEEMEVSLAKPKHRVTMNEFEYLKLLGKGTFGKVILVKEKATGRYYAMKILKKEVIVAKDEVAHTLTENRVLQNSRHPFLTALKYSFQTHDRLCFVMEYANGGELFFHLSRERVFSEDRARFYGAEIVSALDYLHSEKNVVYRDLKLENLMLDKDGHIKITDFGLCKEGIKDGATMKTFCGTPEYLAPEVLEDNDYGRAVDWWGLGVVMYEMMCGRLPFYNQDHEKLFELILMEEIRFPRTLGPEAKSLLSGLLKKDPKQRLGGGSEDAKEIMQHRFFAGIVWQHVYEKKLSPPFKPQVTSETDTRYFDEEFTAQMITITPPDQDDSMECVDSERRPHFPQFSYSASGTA
KIT(V559D,T670I), sequence (P10721 whole entry V559D/T670I): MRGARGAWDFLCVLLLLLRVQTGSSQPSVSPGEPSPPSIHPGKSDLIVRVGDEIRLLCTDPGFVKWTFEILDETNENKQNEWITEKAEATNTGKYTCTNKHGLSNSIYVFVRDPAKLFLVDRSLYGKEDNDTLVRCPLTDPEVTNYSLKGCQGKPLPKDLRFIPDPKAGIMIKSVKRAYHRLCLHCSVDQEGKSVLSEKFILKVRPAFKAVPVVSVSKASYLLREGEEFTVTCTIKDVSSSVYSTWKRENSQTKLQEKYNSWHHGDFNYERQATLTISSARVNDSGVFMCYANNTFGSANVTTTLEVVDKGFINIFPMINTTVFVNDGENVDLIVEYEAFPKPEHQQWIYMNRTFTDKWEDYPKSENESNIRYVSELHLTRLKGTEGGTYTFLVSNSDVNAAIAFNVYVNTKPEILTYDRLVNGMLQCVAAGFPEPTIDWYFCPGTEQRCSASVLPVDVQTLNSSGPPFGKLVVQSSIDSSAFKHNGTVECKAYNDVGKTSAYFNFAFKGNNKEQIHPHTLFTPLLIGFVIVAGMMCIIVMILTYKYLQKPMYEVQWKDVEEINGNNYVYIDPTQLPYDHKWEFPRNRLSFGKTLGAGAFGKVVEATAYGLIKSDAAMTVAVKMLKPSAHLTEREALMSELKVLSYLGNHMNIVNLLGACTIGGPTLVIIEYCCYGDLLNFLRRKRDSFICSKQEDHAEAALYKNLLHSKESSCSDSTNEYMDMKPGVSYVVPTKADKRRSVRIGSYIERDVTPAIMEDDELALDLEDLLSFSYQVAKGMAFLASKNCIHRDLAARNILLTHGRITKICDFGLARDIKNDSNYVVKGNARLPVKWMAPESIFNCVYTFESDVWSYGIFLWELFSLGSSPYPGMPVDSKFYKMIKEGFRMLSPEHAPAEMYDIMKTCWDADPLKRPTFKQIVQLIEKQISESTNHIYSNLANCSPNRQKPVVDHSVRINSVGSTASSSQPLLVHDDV
T1 sequence (O94768 whole entry): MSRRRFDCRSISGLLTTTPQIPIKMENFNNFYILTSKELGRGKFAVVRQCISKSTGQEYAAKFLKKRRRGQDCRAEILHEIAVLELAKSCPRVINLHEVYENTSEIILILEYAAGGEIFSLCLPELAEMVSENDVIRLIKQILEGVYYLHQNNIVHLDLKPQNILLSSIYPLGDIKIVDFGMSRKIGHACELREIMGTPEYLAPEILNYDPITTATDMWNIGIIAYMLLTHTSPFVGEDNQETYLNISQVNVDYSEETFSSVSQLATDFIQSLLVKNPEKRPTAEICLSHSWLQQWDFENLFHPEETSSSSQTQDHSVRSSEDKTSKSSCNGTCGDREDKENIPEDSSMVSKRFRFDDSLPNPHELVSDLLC
CDKL1, sequence (Q00532 whole entry): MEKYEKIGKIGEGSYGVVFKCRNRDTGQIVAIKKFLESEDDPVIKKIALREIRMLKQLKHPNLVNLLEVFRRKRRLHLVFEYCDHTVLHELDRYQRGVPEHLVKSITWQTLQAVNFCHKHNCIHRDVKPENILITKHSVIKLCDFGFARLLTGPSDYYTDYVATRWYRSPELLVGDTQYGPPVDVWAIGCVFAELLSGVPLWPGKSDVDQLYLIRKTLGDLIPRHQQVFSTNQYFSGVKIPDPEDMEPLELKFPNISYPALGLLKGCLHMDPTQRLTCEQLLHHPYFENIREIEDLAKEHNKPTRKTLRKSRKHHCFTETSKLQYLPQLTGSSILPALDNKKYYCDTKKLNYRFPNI
CSNK1G2, sequence (P78368 whole entry): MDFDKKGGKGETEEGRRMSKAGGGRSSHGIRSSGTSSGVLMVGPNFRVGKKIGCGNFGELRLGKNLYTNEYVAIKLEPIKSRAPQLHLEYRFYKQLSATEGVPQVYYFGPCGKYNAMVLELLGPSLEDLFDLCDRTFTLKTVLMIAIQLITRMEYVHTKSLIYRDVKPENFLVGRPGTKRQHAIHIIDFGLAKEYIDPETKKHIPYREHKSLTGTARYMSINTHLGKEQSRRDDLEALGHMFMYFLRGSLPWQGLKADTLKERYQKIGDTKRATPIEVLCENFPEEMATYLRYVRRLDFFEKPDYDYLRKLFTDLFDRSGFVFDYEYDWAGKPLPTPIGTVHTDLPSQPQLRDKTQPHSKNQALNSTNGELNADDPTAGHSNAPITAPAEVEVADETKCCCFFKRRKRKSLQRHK
ACVR2A, sequence (P27037 whole entry): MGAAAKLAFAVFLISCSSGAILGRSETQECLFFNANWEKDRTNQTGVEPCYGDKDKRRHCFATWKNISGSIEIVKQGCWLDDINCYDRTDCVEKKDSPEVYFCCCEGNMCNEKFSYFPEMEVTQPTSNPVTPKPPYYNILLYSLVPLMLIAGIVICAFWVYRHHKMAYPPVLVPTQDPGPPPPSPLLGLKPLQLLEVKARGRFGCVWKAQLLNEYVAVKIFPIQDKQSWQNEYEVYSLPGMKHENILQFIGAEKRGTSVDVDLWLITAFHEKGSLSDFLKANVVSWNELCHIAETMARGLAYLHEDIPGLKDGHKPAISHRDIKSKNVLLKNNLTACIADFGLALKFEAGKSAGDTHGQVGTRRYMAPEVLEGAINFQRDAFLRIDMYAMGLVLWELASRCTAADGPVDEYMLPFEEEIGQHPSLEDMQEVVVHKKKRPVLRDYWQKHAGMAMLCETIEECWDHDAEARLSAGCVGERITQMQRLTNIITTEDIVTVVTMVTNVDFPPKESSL

COc1cc2c(cn1)N(C)C(=O)[C@@H](NC(=O)c1nc3n(n1)[C@H](c1ccccc1)CC3)CC2 [GNE684, (S)-N-((S)-7-methoxy-1-methyl-2-oxo-2,3,4,5-tetrahydro-1H-pyrido[3,4-b]azepin-3-yl)-5-phenyl-6,7-dihydro-5H-pyrrolo[1,2-b][1,2,4]triazole-2-carboxamide]
remaining binding at 10 µM (ACVR2A): 82% | remaining binding at 10 µM (AKT1): 74% | remaining binding at 10 µM (ALK(L1196M)): 78% | remaining binding at 10 µM (BMPR1B): 100% | remaining binding at 10 µM (BUB1): 100% | remaining binding at 10 µM (CDKL1): 74% | remaining binding at 10 µM (CSNK1G2): 90% | remaining binding at 10 µM (DRAK2): 100% | remaining binding at 10 µM (FLT1): 100% | remaining binding at 10 µM (FLT3(ITD,D835V)): 84% | remaining binding at 10 µM (GSK3B): 96% | remaining binding at 10 µM (IRAK4): 100% | remaining binding at 10 µM (KIT(V559D,T670I)): 100% | remaining binding at 10 µM (MAP3K1): 90% | remaining binding at 10 µM (MYLK): 99% | remaining binding at 10 µM (NLK): 94% | remaining binding at 10 µM (PAK4): 93% | remaining binding at 10 µM (PIK3CA(C420R)): 100% | remaining binding at 10 µM [1]: 100% | remaining binding at 10 µM (STK36): 85% | remaining binding at 10 µM (TLK1): 97%
